Several values for one entry are separate records, joined by “and”; a condition that tells them apart may be missing. Equal values may be shown once.
Details: Liquid

CCCOC(=O)CCCCC(=O)OCCC [dipropyl hexanedioate]
Details | viscosity
303.14 K, 1110 kPa, Vibrating wire viscometry | 3.606 mPa·s and 3.607 mPa·s
303.14 K, 1140 kPa, Vibrating wire viscometry | 3.609 mPa·s
303.14 K, 5210 kPa, Vibrating wire viscometry | 3.78 mPa·s
303.14 K, 5220 kPa, Vibrating wire viscometry | 3.781 mPa·s and 3.776 mPa·s
303.14 K, 18280 kPa, Vibrating wire viscometry | 4.327 mPa·s
303.14 K, 18290 kPa, Vibrating wire viscometry | 4.33 mPa·s and 4.331 mPa·s
303.15 K, 2810 kPa, Vibrating wire viscometry | 3.653 mPa·s and 3.654 mPa·s
303.15 K, 2820 kPa, Vibrating wire viscometry | 3.657 mPa·s
303.15 K, 10310 kPa, Vibrating wire viscometry | 3.975 mPa·s
303.15 K, 10320 kPa, Vibrating wire viscometry | 3.972 mPa·s
303.15 K, 15230 kPa, Vibrating wire viscometry | 4.218 mPa·s
303.15 K, 15260 kPa, Vibrating wire viscometry | 4.213 mPa·s
303.15 K, 15310 kPa, Vibrating wire viscometry | 4.218 mPa·s
313.15 K, 2710 kPa, Vibrating wire viscometry | 2.934 mPa·s and 2.931 mPa·s
313.15 K, 15330 kPa, Vibrating wire viscometry | 3.354 mPa·s and 3.356 mPa·s and 3.358 mPa·s
313.15 K, 18290 kPa, Vibrating wire viscometry | 3.441 mPa·s and 3.443 mPa·s
313.16 K, 1200 kPa, Vibrating wire viscometry | 2.882 mPa·s
313.16 K, 1210 kPa, Vibrating wire viscometry | 2.879 mPa·s
313.16 K, 1220 kPa, Vibrating wire viscometry | 2.882 mPa·s
313.16 K, 2700 kPa, Vibrating wire viscometry | 2.933 mPa·s
313.16 K, 5180 kPa, Vibrating wire viscometry | 3.01 mPa·s
313.16 K, 5190 kPa, Vibrating wire viscometry | 3.016 mPa·s
313.16 K, 10460 kPa, Vibrating wire viscometry | 3.178 mPa·s
313.16 K, 10480 kPa, Vibrating wire viscometry | 3.176 mPa·s
313.16 K, 10490 kPa, Vibrating wire viscometry | 3.177 mPa·s
313.16 K, 18290 kPa, Vibrating wire viscometry | 3.445 mPa·s
313.18 K, 101.33 kPa, Capillary tube (Ostwald / Ubbelohde) method | 2.888 mPa·s
323.1 K, 101.33 kPa, Capillary tube (Ostwald / Ubbelohde) method | 2.352 mPa·s
323.15 K, 1160 kPa, Vibrating wire viscometry | 2.359 mPa·s
323.15 K, 1170 kPa, Vibrating wire viscometry | 2.356 mPa·s
323.15 K, 1180 kPa, Vibrating wire viscometry | 2.36 mPa·s
323.15 K, 15180 kPa, Vibrating wire viscometry | 2.729 mPa·s
323.16 K, 2710 kPa, Vibrating wire viscometry | 2.409 mPa·s and 2.408 mPa·s
323.16 K, 2720 kPa, Vibrating wire viscometry | 2.412 mPa·s
323.16 K, 5260 kPa, Vibrating wire viscometry | 2.464 mPa·s
323.16 K, 5270 kPa, Vibrating wire viscometry | 2.462 mPa·s
323.16 K, 15200 kPa, Vibrating wire viscometry | 2.731 mPa·s
323.17 K, 10210 kPa, Vibrating wire viscometry | 2.598 mPa·s
323.17 K, 10220 kPa, Vibrating wire viscometry | 2.597 mPa·s
323.17 K, 18240 kPa, Vibrating wire viscometry | 2.814 mPa·s
323.17 K, 18260 kPa, Vibrating wire viscometry | 2.816 mPa·s
323.17 K, 18270 kPa, Vibrating wire viscometry | 2.812 mPa·s
333.14 K, 2610 kPa, Vibrating wire viscometry | 2.006 mPa·s
333.14 K, 2620 kPa, Vibrating wire viscometry | 2.009 mPa·s
333.15 K, 2620 kPa, Vibrating wire viscometry | 2.009 mPa·s
333.15 K, 5110 kPa, Vibrating wire viscometry | 2.05 mPa·s and 2.052 mPa·s
333.15 K, 5130 kPa, Vibrating wire viscometry | 2.052 mPa·s
333.15 K, 15200 kPa, Vibrating wire viscometry | 2.274 mPa·s
333.15 K, 15220 kPa, Vibrating wire viscometry | 2.273 mPa·s
333.15 K, 18260 kPa, Vibrating wire viscometry | 2.339 mPa·s
333.15 K, 18290 kPa, Vibrating wire viscometry | 2.338 mPa·s
333.15 K, 18300 kPa, Vibrating wire viscometry | 2.343 mPa·s
333.16 K, 1090 kPa, Vibrating wire viscometry | 1.975 mPa·s
333.16 K, 1100 kPa, Vibrating wire viscometry | 1.979 mPa·s
333.16 K, 1120 kPa, Vibrating wire viscometry | 1.979 mPa·s
333.16 K, 10160 kPa, Vibrating wire viscometry | 2.167 mPa·s
333.16 K, 10180 kPa, Vibrating wire viscometry | 2.163 mPa·s
333.16 K, 10190 kPa, Vibrating wire viscometry | 2.165 mPa·s
333.16 K, 15220 kPa, Vibrating wire viscometry | 2.273 mPa·s
333.22 K, 101.33 kPa, Capillary tube (Ostwald / Ubbelohde) method | 1.97 mPa·s

From the NIST ThermoML archive (doi:10.1016/j.fluid.2015.03.016)
